# According to patent US9452037B2, “Delivery of oral care products” (INTERNATIONAL SCIENTIFIC PTY LTD, priority 2010, dated 2016):
# Assay: Tooth whitening of extracted human teeth with carbamide peroxide gel, delivered passively or with displaced dipolar magnetic elements in motion
# Settings: for relative (%) change in tooth colour (reduction in yellow content), mean: 700 mg of 36% gel, 10 teeth; for relative (%) change in tooth colour (reduction in yellow content), mean / average shift from the yellow spectrum to the white spectrum, mean / change in colour luminosity, mean: 3 minutes daily for 5 days; for average shift from the yellow spectrum to the white spectrum, mean / change in colour luminosity, mean: 36% gel
# Procedure: The ability of the devices of the present invention to deliver active agents (carbamide peroxide) through the dentine of teeth was tested.
# 20 human teeth were donated by a registered oral surgeon and stored in alcohol for 48 hours prior to ultrasonic cleaning and drying using warm air and absorbent paper. Teeth were divided into two groups. 10 teeth were allocated to the active group (exposed to pairs of displaced dipolar magnetic elements in motion) and 10 allocated to the passive delivery group (exposed to materials with no magnetic field but also in motion). Size, colour and degree of degeneration were matched between the groups.
# Individual teeth were photographed using controlled light conditions before and after application of Carbamide Peroxide Gel using a 10 megapixel camera (Pentax Optio) digital camera. Commercial digital imaging software (Photoshop CS2 version 9), was used in CMYK mode to degenerate histograms and images of matched regions of enamel in tooth before and after application.
# Each tooth was treated using 700 mg of 36% Carbaminde Peroxide based Tooth Whitening gel. This measure of gel was place on the surface of 10 sized matched pairs of displaced dipolar magnetic elements comprising flexible ETP008 magnetic material formed of a parallel linear array of displaced dipolar magnetic elements with common pole pairs of 450 gauss peak flux with a centre to centre spatial separation of 4 mm oscillated by electrical motor at a frequency of 3 Hz [this is also known as the field-in-motion or FIM group, or eM patch group]. The control group was placed on the surface of polystyrene cards and also oscillated at 3 Hz using the same motorized oscillation means. Teeth were placed horizontally into the carbamide peroxide gel mounds ensuring complete contact and coverage. After 3 minutes of exposure, teeth were removed, cleaned and preserved for the following day. This was repeated for 5 consecutive days.
# Analysis was conducted using three measures of colour change. Relative change in percentage of yellow in the image, changes in the spectrum shift from yellow to white and in the luminosity level.
# Relative change in the percentage of Yellow in the matched regions of enamel was taken as reflecting the change in the colour of the underlying dentin materials. Differences in the relative change in the Yellow spectrum were interpreted as reflecting the different penetrations rates of peroxide delivery through the enamel under active and passive conditions.
# Changes in the spectrum medium point reflects change in colour from the yellow towards the white end of the spectrum. Again, differences in spectrum medium point location were interpreted as reflecting the different penetrations rates of peroxide delivery through the enamel under active and passive conditions.
# Luminosity was recorded as a measure of brightness with changes reflecting different penetrations rates of peroxide delivery through the enamel under active and passive conditions.
# [1] = Magnetic FIM (eM-patch): ETP008 array oscillated at 3 Hz
# [2] = Passive: no magnetic field, oscillated at 3 Hz
smiles,measurement,setting,value
NC(N)=O.OO [carbamide peroxide],"relative (%) change in tooth colour (reduction in yellow content), mean",[1],43.98%
same,"average shift from the yellow spectrum to the white spectrum, mean",[1],36.20
same,"change in colour luminosity, mean",[1],29.54
same,"average shift from the yellow spectrum to the white spectrum, mean",[2],27.70
same,"change in colour luminosity, mean",[2],21.09
same,"relative (%) change in tooth colour (reduction in yellow content), mean","Passive: polystyrene card oscillated at 3 Hz, no magnetic field",29.58%
same,greater increase in luminosity than the passive group,"magnetic elements in motion vs passive, p=0.023",40%
same,greater reduction in yellow content compared to the passive group,"magnetic elements in motion vs passive, p=0.025",49%
same,average shift from yellow to white spectrum greater than the passive diffusion group,"magnetic elements in motion vs passive, p=0.044",31%
